Key:
Experiment in all cases: Kinase selectivity, DiscoverX scanMAX Kinase assay panel (% control)
Format in all cases: binding
[1] = target: T1, kinases of the scanMAX Kinase assay panel (Homo sapiens, UniProt P57078); settings: kinase RIPK4; 1 uM in DMSO
T1 construct: purchased DiscoverX Co. (contract measurement) scanMAX Kinase assay panel
T1 sequence (P57078 1-832): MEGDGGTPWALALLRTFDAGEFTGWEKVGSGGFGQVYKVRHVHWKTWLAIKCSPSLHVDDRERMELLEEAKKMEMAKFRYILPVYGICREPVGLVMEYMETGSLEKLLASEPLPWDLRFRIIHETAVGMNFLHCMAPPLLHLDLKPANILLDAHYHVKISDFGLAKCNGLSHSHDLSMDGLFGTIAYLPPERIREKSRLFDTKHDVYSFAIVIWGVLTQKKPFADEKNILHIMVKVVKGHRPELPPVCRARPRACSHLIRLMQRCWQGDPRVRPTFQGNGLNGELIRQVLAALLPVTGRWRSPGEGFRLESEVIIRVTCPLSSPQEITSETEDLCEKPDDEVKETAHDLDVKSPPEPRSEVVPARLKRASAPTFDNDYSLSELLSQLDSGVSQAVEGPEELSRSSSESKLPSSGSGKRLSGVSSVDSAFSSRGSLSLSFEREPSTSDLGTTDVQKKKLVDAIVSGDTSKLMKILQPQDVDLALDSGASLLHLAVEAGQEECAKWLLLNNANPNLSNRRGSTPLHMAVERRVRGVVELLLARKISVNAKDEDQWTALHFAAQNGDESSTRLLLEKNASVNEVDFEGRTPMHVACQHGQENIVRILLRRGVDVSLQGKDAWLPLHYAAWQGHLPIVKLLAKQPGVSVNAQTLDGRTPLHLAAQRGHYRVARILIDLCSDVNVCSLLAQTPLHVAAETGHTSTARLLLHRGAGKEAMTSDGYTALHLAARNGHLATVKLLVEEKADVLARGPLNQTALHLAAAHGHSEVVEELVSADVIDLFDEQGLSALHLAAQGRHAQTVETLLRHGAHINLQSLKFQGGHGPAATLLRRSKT
In short: (§1)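 Read-out is % control, normalised so a positive-control compound sits at 0% and DMSO at 100%: (test − positive)/(negative − positive)×100. Each kinase received the compound at 1 uM in DMSO. A value below 35% counts as activity.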

[2] = target: T2, kinases of the scanMAX Kinase assay panel (Homo sapiens, UniProt Q15139); settings: PRKD1; 1 uM
T2 construct: purchased DiscoverX Co. (contract measurement) scanMAX Kinase assay panel
T2 sequence (Q15139 1-912): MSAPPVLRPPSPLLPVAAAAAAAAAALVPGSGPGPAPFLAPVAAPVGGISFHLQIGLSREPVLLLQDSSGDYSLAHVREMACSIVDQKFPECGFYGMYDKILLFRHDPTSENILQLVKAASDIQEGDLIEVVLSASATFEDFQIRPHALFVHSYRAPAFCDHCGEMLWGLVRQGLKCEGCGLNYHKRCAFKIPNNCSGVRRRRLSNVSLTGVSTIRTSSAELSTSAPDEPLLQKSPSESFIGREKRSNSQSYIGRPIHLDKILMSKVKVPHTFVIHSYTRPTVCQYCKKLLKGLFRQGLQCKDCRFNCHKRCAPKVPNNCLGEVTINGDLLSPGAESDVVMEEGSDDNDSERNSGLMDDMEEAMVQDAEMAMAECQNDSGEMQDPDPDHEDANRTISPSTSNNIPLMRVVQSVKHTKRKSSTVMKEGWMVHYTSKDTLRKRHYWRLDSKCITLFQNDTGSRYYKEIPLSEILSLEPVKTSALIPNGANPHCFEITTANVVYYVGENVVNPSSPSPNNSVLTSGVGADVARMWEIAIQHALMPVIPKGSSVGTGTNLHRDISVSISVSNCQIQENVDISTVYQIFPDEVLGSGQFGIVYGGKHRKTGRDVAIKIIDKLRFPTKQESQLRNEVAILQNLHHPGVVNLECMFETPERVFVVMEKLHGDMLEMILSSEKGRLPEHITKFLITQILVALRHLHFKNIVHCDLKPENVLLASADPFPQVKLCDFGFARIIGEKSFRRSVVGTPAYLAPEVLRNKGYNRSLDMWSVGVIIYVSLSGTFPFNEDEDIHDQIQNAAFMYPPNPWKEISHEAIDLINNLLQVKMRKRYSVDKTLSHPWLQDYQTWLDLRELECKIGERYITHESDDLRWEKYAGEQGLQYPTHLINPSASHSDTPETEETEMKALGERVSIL
In short: as §1

[3] = target: T3, kinases of the scanMAX Kinase assay panel (Homo sapiens, UniProt Q16512); settings: PKN1; 1 uM
T3 construct: purchased DiscoverX Co. (contract measurement) scanMAX Kinase assay panel
T3 sequence (Q16512 whole entry): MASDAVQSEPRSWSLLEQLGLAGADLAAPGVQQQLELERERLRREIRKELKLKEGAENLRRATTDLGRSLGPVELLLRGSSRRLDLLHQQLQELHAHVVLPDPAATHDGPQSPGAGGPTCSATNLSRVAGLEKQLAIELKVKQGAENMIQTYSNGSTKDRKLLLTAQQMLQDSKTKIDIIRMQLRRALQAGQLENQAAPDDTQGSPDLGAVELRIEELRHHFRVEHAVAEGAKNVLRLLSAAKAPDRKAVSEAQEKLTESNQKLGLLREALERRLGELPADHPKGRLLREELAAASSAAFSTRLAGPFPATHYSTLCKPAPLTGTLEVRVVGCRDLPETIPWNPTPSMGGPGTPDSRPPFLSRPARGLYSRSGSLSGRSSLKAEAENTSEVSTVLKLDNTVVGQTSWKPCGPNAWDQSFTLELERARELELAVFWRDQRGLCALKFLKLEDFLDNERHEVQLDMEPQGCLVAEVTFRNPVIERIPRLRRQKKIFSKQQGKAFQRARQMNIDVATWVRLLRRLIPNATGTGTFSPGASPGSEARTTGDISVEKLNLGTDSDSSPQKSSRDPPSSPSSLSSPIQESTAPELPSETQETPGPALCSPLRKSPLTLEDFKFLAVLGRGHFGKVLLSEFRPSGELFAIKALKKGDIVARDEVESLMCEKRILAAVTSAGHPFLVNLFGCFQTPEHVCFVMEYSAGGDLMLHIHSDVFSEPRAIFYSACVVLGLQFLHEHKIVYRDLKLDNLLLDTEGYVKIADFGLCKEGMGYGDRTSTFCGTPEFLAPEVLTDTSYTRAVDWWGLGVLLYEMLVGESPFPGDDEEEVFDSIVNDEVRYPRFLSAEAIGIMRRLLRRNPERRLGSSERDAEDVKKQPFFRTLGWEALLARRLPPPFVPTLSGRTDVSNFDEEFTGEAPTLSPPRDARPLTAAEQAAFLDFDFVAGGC
In short: as §1

[4] = target: T4, kinases of the scanMAX Kinase assay panel (Homo sapiens, UniProt Q8TD08); settings: ERK8; 1 uM
T4 construct: purchased DiscoverX Co. (contract measurement) scanMAX Kinase assay panel
T4 sequence (Q8TD08 1-544): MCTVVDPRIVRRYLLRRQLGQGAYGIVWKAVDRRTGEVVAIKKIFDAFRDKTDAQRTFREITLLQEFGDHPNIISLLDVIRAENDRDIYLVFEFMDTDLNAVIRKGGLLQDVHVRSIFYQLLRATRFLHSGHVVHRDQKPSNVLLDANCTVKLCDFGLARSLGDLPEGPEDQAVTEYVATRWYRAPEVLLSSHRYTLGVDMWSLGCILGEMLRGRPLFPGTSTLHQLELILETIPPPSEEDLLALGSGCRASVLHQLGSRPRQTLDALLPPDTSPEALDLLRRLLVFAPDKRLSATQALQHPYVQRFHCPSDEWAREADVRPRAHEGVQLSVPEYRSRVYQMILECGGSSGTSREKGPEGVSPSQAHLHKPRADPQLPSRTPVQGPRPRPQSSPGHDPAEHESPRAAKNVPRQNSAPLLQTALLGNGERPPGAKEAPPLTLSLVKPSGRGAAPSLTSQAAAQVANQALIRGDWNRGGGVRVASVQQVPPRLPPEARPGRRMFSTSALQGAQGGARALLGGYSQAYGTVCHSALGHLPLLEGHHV
In short: as §1

| SMILES | remaining binding at 1 µM [1] [%] | remaining binding at 1 µM [2] [%] | remaining binding at 1 µM [3] [%] | remaining binding at 1 µM [4] [%] |
| --- | --- | --- | --- | --- |
| CNc1nc(Nc2ccc(C(=O)N3CCOCC3)cc2OC)nc2[nH]cc(C#N)c12 [Example 1, 2-((2-methoxy-4-(morpholine-4-carbonyl)phenyl)amino)-4-(methylamino)-7H-pyrrolo[2,3-d]pyrimidine-5-carbonitrile] | 72 | 5.7 | 100 | 100 |
| CC1(Nc2nc(Nc3cnn([C@H]4CCN(C5COC5)C[C@@H]4F)c3Cl)nc3[nH]cc(C#N)c23)CC1 [Example 52, 2-((5-chloro-1-((3S,4S)-3-fluoro-1-(oxetane-3-yl)piperidine-4-yl)-1H-pyrazole-4-yl)amino)((1-methylcyclopropyl)amino)-7H-pyrrolo[2,3-d]pyrimidine-5-carbonitrile] | 1.6 | 12 | 67 | 62 |
| CCNc1nc(Nc2ccc(C(=O)N3CCC(N4CCOCC4)CC3)cc2OC)nc2[nH]cc(C(F)(F)F)c12 [Example 104, (4-((4-(ethylamino)-5-(trifluoromethyl)-7H-pyrrolo[2,3-d]pyrimidine-2-yl)amino)-3-methoxyphenyl)(4-morpholinopiperidine-1-yl)methanone] | 0.6 | 11 | 95 | 100 |

Reference: patent US11208412B2 (DAEGU-GYEONGBUK MEDICAL INNOVATION FOUNDATION, priority 2017, dated 2021)
